Measured values from patent US6458806B1, “Aryl alkenamides derivatives as MCP-1 antagonists” (Millennium Pharmaceuticals, Inc., priority 1996, dated 2002).
Counter-ions that a name gives are not always drawn.

Test system: T cell recruitment to skin DHR sites
Assay: Inhibition of T cell recruitment to rat skin inflammatory (DHR) sites
Format: in vivo
Protocol: Inhibition of T Cell Recruitment to Rat Skin Inflammatory Sites by Compound 1
Inbred, approximately 200 gm, male Lewis rats were used in all experiments. Cutaneous delayed hypersensitivity (DHR) was induced as previously described (1). Briefly, rats were sensitized to KLH (Sigma Chemical Co., St. Louis, Mo.) by administering 50 μg KLH in 0.1 ml complete Freund's adjuvant (CFA; Sigma Chemical Co.) into each of 4 subcutaneous sites. After 14 days, DHR was elicited by the challenge of 5 μg KLH in PBS into multiple intradermal sites on the back. Analysis was performed 24 hours after antigen challenge. For each experiment, there were at least three groups of animals of at least four animals in each group. […]
T cell recruitment at sites of DHR was quantified using methods previously described (1-4). […] The cells in the effluent were highly purified (>95%) rat T cells as assessed by anti-rat CD3 (monoclonal antibody KT3, Biosource International, Camarillo, Calif.) immunoreactivity by flow cytometry. […] Skin challenge sites (8 mm in diameter) were counted on a γ counter 24 hours after injection of radiolabeled T cells. Lung, liver, and spleen were also collected and counted as comparative indices for evaluation of input.
Statistical significance was determined using a paired Student's t-test. […]

O=C(/C=C/C=C/c1ccc(Cl)c(Cl)c1)NCCCN1CCCCC1 [Example 1, 5-(3,4-Dichloro-phenyl)-penta-2,4-dienoic Acid (3-piperidin-1-yl-propyl)-amide-HCl]
inhibition of T cell recruitment in rat DHR (result in words) (30 mg/kg per os at time of antigen challenge, 24 hour period, FIG. 2): statisticallly significant inhibitory effect
inhibition of recruitment of 111In-labeled rat T cells to skin DHR sites (Lewis rats, 30 mg/kg once per os at time of antigen (KLH) challenge, 24 hours, P<0.05, dose-dependent): approximately 80%
